Assay results reported in patent US20200237700A1, “METHODS OF REDUCING OR PREVENTING OXIDATION OF SMALL DENSE LDL OR MEMBRANE POLYUNSATURATED FATTY ACIDS” (Amarin Pharmaceuticals Ireland Limited, priority 2015, published 2020).

Assays:
[1] = system: human sdLDL; test: Copper-induced sdLDL oxidation, TBARS after 2 hr (Example 6); assay type: biochemical; conditions: 10 μM CuSO4
Experimental: An experiment to study the antioxidant effect of EPA in small dense […] performed. […] Vitamin E (α-tocopherol) was purchased from Sigma-Aldrich and prepared in ethanol at 1.0 mM (ε=3.06×10^4 M^-1 cm^-1 at 294 nm) just prior to experimental use. All test compounds were further diluted in ethanol or aqueous buffer as needed. Venous blood was collected from healthy volunteers into vacutainer tubes containing sodium EDTA. Plasma was separated by centrifugation at 3000 g for 25 min at 4° C. and adjusted to a density of 1.020 g/mL with KBr. Triglyceride-rich lipoproteins (TGRL) and LDL fractions were then isolated by sequential centrifugation at 70,000 rpm at 4° C. in a Beckman LE-80 ultracentrifuge using a Beckman 50.4Ti rotor (Beckman Coulter, Inc., Fullerton, Calif.). The TGRL fraction (with a relative density of <1.020) was aspirated from the top of the centrifugate and discarded, leaving an LDL-enriched […] relative density of 1.020 to 1.063). […] The sdLDL subfraction was retained for additional experimentation. Plasma and lipoprotein fractions were maintained at 4° C. and protected from excessive exposure to light. Prior to oxidation experiments, EDTA was removed from the lipoprotein fraction using PD-10 desalting columns (GE Healthcare, Piscataway N.J.). After equilibration of the column with phosphate buffered saline (PBS), 2.5 mL of the lipoprotein fraction was loaded on the column and the flow-through discarded. The lipoprotein was then eluted with 3 mL of PBS. The LDL fractions were further diluted with PBS to obtain a 100 μg/mL apoB100 concentration. […] Data are presented as mean±S.D. for (N) separate samples or treatment groups. Differences between groups were analyzed using the two-tailed, Student's t-test (for comparisons between only two groups) or ANOVA followed by Dunnett or Student-Newman-Keuls multiple comparisons post-hoc analysis (for comparisons between three or more groups).

[2] = system: sdLDL from plasma of healthy volunteers; test: Time-dependent sdLDL oxidation, MDA formation over 4 hours (Example 13); assay type: biochemical, human; conditions: each at 10 μM; 4 hours; 10 μM CuSO4
Experimental: sdLDL was isolated from the plasma of healthy volunteers by iodixanol density gradient centrifugation and adjusted to a final apolipoprotein concentration of 2 mg/mL. Sample aliquots (100 μg apolipoprotein) were incubated with EPA, DHA, or EPA+DHA (each at 10 μM) for 30 minutes at 37° C. and then treated with 10 μM CuSO4 to initiate lipid oxidation. sdLDL oxidation was measured spectrophotometrically as a function of malondialdehyde (MDA) formation at various intervals over 4 hours. Vitamin E was also tested as a positive control. Experiments were conducted in triplicate and reported as mean±SD.

Compound: CC/C=C\C/C=C\C/C=C\C/C=C\C/C=C\CCCC(=O)O [EPA, cis-5,8,11,14,17-eicosapentaenoic acid]
- reduced TBARS levels compared to vehicle-treated controls ([1]; 1.0 μM): 13%
- reduced TBARS levels compared to vehicle-treated controls ([1]; 10.0 μM): 57%
- MDA levels [2]: 0.8 ± 0.03 µM
- reduction in sdLDL oxidation (MDA levels) [2]: 92%
